Laboratory results taken from ChEMBL document CHEMBL1201862, “PubChem BioAssay data set” (2004).
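Compound exposure: 48 hours, 5 concentrations, 96-well plates. GI50 = concentration required for 50% inhibition of growth.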 The source made the active and inactive calls. No stated cut-off is given here; in the data, active = GI50 up to about 1.1 µM and inactive = higher.

Assays:
Assay in all cases: NCI anticancer screen, dose series, 48 h
786-0 = tested on: 786-0
ACHN = tested on: ACHN
CCRF-CEM = tested on: CCRF-CEM
DU-145 = tested on: DU-145
KM12 = tested on: KM12
LOX IMVI = tested on: LOX IMVI
LXFL 529 = tested on: LXFL 529
M14 = tested on: M14
MCF7 = tested on: MCF7
OVCAR-4 = tested on: OVCAR-4
OVCAR-8 = tested on: OVCAR-8
PC-3 = tested on: PC-3
SF-268 = tested on: SF-268
SK-MEL-28 = tested on: SK-MEL-28
SK-OV-3 = tested on: SK-OV-3
SN12C = tested on: SN12C
SNB-78 = tested on: SNB-78
SW-620 = tested on: SW-620
UACC-257 = tested on: UACC-257
BT-549 = tested on: BT-549

Compound	GI50 (786-0)	GI50 (ACHN)	GI50 (CCRF-CEM)	GI50 (DU-145)	GI50 (KM12)	GI50 (LOX IMVI)	GI50 (LXFL 529)	GI50 (M14)	GI50 (MCF7)	GI50 (OVCAR-4)	GI50 (OVCAR-8)	GI50 (PC-3)	GI50 (SF-268)	GI50 (SK-MEL-28)	GI50 (SK-OV-3)	GI50 (SN12C)	GI50 (SNB-78)	GI50 (SW-620)	GI50 (UACC-257)	GI50 (BT-549)
CC(=O)OCc1cc2c(s1)C(=O)c1sccc1C2=O	0.619 µM (active)	0.0881 µM (active)	0.383 µM (active)	0.0336 µM (active)	0.234 µM (active)	< 0.0182 µM (active)	0.308 µM (active)	< 0.0139 µM (active)	0.208 µM (active)	0.191 µM (active)	0.183 µM (active)	0.194 µM (active)	0.154 µM (active)	< 0.0386 µM (active)	1.72 µM (inactive)	0.13 µM (active)	13.2 µM (inactive)	0.104 µM (active)	0.0986 µM (active)	
O=C1C2CCN(CC2)C1CN1CCOCC1 (centres undefined)	1.93 µM (inactive)	2.01 µM (inactive)	6.98 µM (inactive)	6.47 µM (inactive)	16.6 µM (inactive)	5.16 µM (inactive)	2 µM (inactive)	2.96 µM (inactive)	2.9 µM (inactive)	4.04 µM (inactive)	5.02 µM (inactive)	20 µM (inactive)	13.7 µM (inactive)	3.79 µM (inactive)	17.2 µM (inactive)	4.05 µM (inactive)	20.7 µM (inactive)	1.72 µM (inactive)	4.33 µM (inactive)	2.28 µM (inactive)
COc1cc2c(c(OC)c1OC)-c1ccc(SC)c(=O)cc1C(CC(=O)Oc1ccc(F)cc1)C2 (centres undefined)	0.0625 µM (active)	0.18 µM (active)	0.238 µM (active)		0.158 µM (active)	0.236 µM (active)	0.31 µM (active)	0.172 µM (active)		0.741 µM (active)	0.333 µM (active)		0.622 µM (active)	0.48 µM (active)	0.028 µM (active)	0.367 µM (active)	0.142 µM (active)	0.0918 µM (active)	38.9 µM (inactive)	
O=C(N/C(=C\c1ccc(/C=C(\NC(=O)c2ccccc2)c2nc3cc(Cl)ccc3[nH]2)cc1)c1nc2cc(Cl)ccc2[nH]1)c1ccccc1	25.6 µM (inactive)	26.9 µM (inactive)	5.31 µM (inactive)		14 µM (inactive)	25.9 µM (inactive)	22.9 µM (inactive)	26.9 µM (inactive)		20.2 µM (inactive)	27.7 µM (inactive)		11.8 µM (inactive)	17.5 µM (inactive)	> 100 µM (inactive)	30.1 µM (inactive)	> 100 µM (inactive)	55 µM (inactive)	36.4 µM (inactive)	
COc1cc2c(cc1OC)[Se]c1cc(OC)c(OC)cc1[Se]2	> 10 µM (inactive)	> 10 µM (inactive)	> 10 µM (inactive)		6.15 µM (inactive)	80 µM (inactive)	> 10 µM (inactive)	> 10 µM (inactive)		> 10 µM (inactive)	> 10 µM (inactive)		> 10 µM (inactive)	> 10 µM (inactive)	> 10 µM (inactive)	> 10 µM (inactive)	> 10 µM (inactive)	> 10 µM (inactive)	> 10 µM (inactive)	
COc1c(O)c2c3c(cc(C)cc3c1C(C)C)OC2	> 100 µM (inactive)	> 100 µM (inactive)	> 100 µM (inactive)		> 100 µM (inactive)	> 100 µM (inactive)	> 100 µM (inactive)	> 100 µM (inactive)		> 100 µM (inactive)	> 100 µM (inactive)		> 100 µM (inactive)	> 100 µM (inactive)	> 100 µM (inactive)	> 100 µM (inactive)	> 100 µM (inactive)	> 100 µM (inactive)	> 100 µM (inactive)	
COC(=O)[C@@]12C(=O)C=CC(=O)C1C1C(=CC2C)OC2OC3(CCCCC3)OC21 (some centres undefined)	17.5 µM (inactive)	16.9 µM (inactive)	2.52 µM (inactive)		20 µM (inactive)	20.5 µM (inactive)	13.5 µM (inactive)	17.8 µM (inactive)		16.7 µM (inactive)	16.4 µM (inactive)		20.9 µM (inactive)	16.9 µM (inactive)	18.6 µM (inactive)	17.7 µM (inactive)	20.6 µM (inactive)	19.3 µM (inactive)	17.1 µM (inactive)	
